Assay results taken from ChEMBL document CHEMBL3885881, “DrugMatrix”.

Species: Rattus norvegicus
Test: DrugMatrix - Regimen: Daily Repeat
Assay type: toxicity, organism-based, Sprague-Dawley
Parameters: regimen Daily Repeat, gender Male, age 6-8 weeks
Details: in vivo, po, route oral GAVAGE, […]; for ABSOLUTE BASOPHIL / ABSOLUTE EOSINOPHIL / ABSOLUTE LYMPHOCYTE / ABSOLUTE MONOCYTE / ABSOLUTE SEGMENTED NEUTROPHIL / BASOPHIL / EOSINOPHIL / ERYTHROCYTE COUNT / HEMATOCRIT / HEMOGLOBIN / LEUKOCYTE COUNT / LYMPHOCYTE / MEAN CORPUSCULAR HEMOGLOBIN / MEAN CORPUSCULAR HEMOGLOBIN CONCENTRATION / MEAN CORPUSCULAR VOLUME / MONOCYTE / NEUTROPHIL / NUCLEATED RED BLOOD CELLS / PLATELET COUNT: tissue Blood; for ALANINE AMINOTRANSFERASE / ALBUMIN / ALKALINE PHOSPHATASE / ASPARTATE AMINOTRANSFERASE / BLOOD UREA NITROGEN / CARBON DIOXIDE / CHLORIDE / CHOLESTEROL / CREATINE PHOSPHOKINASE / CREATININE / GLUCOSE / LACTATE DEHYDROGENASE / LIPASE / PHOSPHORUS / POTASSIUM / SODIUM / TOTAL BILIRUBIN / TOTAL PROTEIN / URIC ACID: tissue Plasma
[1] = 0 mg/kg, 72 h, dose level Control, time 3 day
[2] = 0 mg/kg, 120 h, dose level Control, time 5 day
[3] = 29 mg/kg, 72 h, dose level Low, time 3 day

C[C@@H]1CN(c2c(F)c(N)c3c(=O)c(C(=O)O)cn(C4CC4)c3c2F)C[C@H](C)N1 [SPARFLOXACIN]
ABSOLUTE BASOPHIL [1]: 0 CELLS/uL
ABSOLUTE EOSINOPHIL [1]: 70.67 CELLS/uL
ABSOLUTE LYMPHOCYTE [1]: 12761.5 CELLS/uL
ABSOLUTE MONOCYTE [1]: 214.17 CELLS/uL
ABSOLUTE SEGMENTED NEUTROPHIL [1]: 987 CELLS/uL
BASOPHIL [1]: 0%
EOSINOPHIL [1]: 0.5%
ERYTHROCYTE COUNT [1]: 5.61 x10E6/uL
HEMATOCRIT [1]: 35.22%
HEMOGLOBIN [1]: 13.57 G/DL
LEUKOCYTE COUNT [1]: 14.03 x10E3/uL
LYMPHOCYTE [1]: 91%
MEAN CORPUSCULAR HEMOGLOBIN [1]: 24.25 pg
MEAN CORPUSCULAR HEMOGLOBIN CONCENTRATION [1]: 38.52 G/DL
MEAN CORPUSCULAR VOLUME [1]: 62.9 fL
MONOCYTE [1]: 1.5%
NEUTROPHIL [1]: 7%
NUCLEATED RED BLOOD CELLS [1]: 0 /100WBC
PLATELET COUNT [1]: 997.5 x10E3/uL
ALANINE AMINOTRANSFERASE [1]: 66.5 u/L
ALBUMIN [1]: 3.98 G/DL
ALKALINE PHOSPHATASE [1]: 350 u/L
ASPARTATE AMINOTRANSFERASE [1]: 83.83 u/L
BLOOD UREA NITROGEN [1]: 12.33 mg/dL
CARBON DIOXIDE [1]: 30.33 mmol/L
CHLORIDE [1]: 100 MEQ/L
CHOLESTEROL [1]: 75 mg/dL
CREATINE PHOSPHOKINASE [1]: 200 u/L
CREATININE [1]: 0.17 mg/dL
GLUCOSE [1]: 170 mg/dL
LACTATE DEHYDROGENASE [1]: 89.33 u/L
LIPASE [1]: 10.33 u/L
PHOSPHORUS [1]: 10.88 mg/dL
POTASSIUM [1]: 6.13 MEQ/L
SODIUM [1]: 140.53 MEQ/L
TOTAL BILIRUBIN [1]: 0.2 mg/dL
TOTAL PROTEIN [1]: 5.67 G/DL
URIC ACID [1]: 1.6 mg/dL
ABSOLUTE BASOPHIL [2]: 0 CELLS/uL
ABSOLUTE EOSINOPHIL [2]: 0 CELLS/uL
ABSOLUTE LYMPHOCYTE [2]: 9526.67 CELLS/uL
ABSOLUTE MONOCYTE [2]: 134.17 CELLS/uL
ABSOLUTE SEGMENTED NEUTROPHIL [2]: 922.5 CELLS/uL
BASOPHIL [2]: 0%
EOSINOPHIL [2]: 0%
ERYTHROCYTE COUNT [2]: 5.58 x10E6/uL
HEMATOCRIT [2]: 34.78%
HEMOGLOBIN [2]: 13.5 G/DL
LEUKOCYTE COUNT [2]: 10.58 x10E3/uL
LYMPHOCYTE [2]: 90.17%
MEAN CORPUSCULAR HEMOGLOBIN [2]: 24.27 pg
MEAN CORPUSCULAR HEMOGLOBIN CONCENTRATION [2]: 38.82 G/DL
MEAN CORPUSCULAR VOLUME [2]: 62.48 fL
MONOCYTE [2]: 1.17%
NEUTROPHIL [2]: 8.67%
NUCLEATED RED BLOOD CELLS [2]: 0.17 /100WBC
PLATELET COUNT [2]: 807.17 x10E3/uL
ALANINE AMINOTRANSFERASE [2]: 66.83 u/L
ALBUMIN [2]: 3.73 G/DL
ALKALINE PHOSPHATASE [2]: 286.17 u/L
ASPARTATE AMINOTRANSFERASE [2]: 142.33 u/L
BLOOD UREA NITROGEN [2]: 14.67 mg/dL
CARBON DIOXIDE [2]: 25.5 mmol/L
CHLORIDE [2]: 89.17 MEQ/L
CHOLESTEROL [2]: 75.17 mg/dL
CREATINE PHOSPHOKINASE [2]: 310.67 u/L
CREATININE [2]: 0.2 mg/dL
GLUCOSE [2]: 153 mg/dL
LACTATE DEHYDROGENASE [2]: 1594 u/L
LIPASE [2]: 14.83 u/L
PHOSPHORUS [2]: 11.28 mg/dL
POTASSIUM [2]: 8.46 MEQ/L
SODIUM [2]: 126.88 MEQ/L
TOTAL BILIRUBIN [2]: 0.37 mg/dL
TOTAL PROTEIN [2]: 5.53 G/DL
URIC ACID [2]: 1.52 mg/dL
ABSOLUTE BASOPHIL [3]: 0 CELLS/uL
ABSOLUTE EOSINOPHIL [3]: 0 CELLS/uL
ABSOLUTE LYMPHOCYTE [3]: 14451.67 CELLS/uL
ABSOLUTE MONOCYTE [3]: 45 CELLS/uL
ABSOLUTE SEGMENTED NEUTROPHIL [3]: 1203.33 CELLS/uL
BASOPHIL [3]: 0%
EOSINOPHIL [3]: 0%
ERYTHROCYTE COUNT [3]: 5.64 x10E6/uL
HEMATOCRIT [3]: 35.07%
HEMOGLOBIN [3]: 13.97 G/DL
LEUKOCYTE COUNT [3]: 15.7 x10E3/uL
LYMPHOCYTE [3]: 92%
MEAN CORPUSCULAR HEMOGLOBIN [3]: 24.77 pg
MEAN CORPUSCULAR HEMOGLOBIN CONCENTRATION [3]: 39.83 G/DL
MEAN CORPUSCULAR VOLUME [3]: 62.2 fL
MONOCYTE [3]: 0.33%
NEUTROPHIL [3]: 7.67%
NUCLEATED RED BLOOD CELLS [3]: 0.33 /100WBC
PLATELET COUNT [3]: 1161 x10E3/uL
ALANINE AMINOTRANSFERASE [3]: 67.67 u/L
ALBUMIN [3]: 4 G/DL
ALKALINE PHOSPHATASE [3]: 395.67 u/L
ASPARTATE AMINOTRANSFERASE [3]: 96.33 u/L
BLOOD UREA NITROGEN [3]: 9.67 mg/dL
CARBON DIOXIDE [3]: 25 mmol/L
CHLORIDE [3]: 102.33 MEQ/L
CHOLESTEROL [3]: 76.33 mg/dL
CREATINE PHOSPHOKINASE [3]: 757 u/L
CREATININE [3]: 0.16 mg/dL
GLUCOSE [3]: 172.67 mg/dL
LACTATE DEHYDROGENASE [3]: 255.33 u/L
LIPASE [3]: 10.33 u/L
PHOSPHORUS [3]: 11.53 mg/dL
POTASSIUM [3]: 6.56 MEQ/L
SODIUM [3]: 142.23 MEQ/L
TOTAL BILIRUBIN [3]: 0.13 mg/dL
TOTAL PROTEIN [3]: 5.83 G/DL
URIC ACID [3]: 1.93 mg/dL
